Experimental data reported in US10722563B2, “Prostate-specific tumor antigens and uses thereof” (SHENZHEN INNOVATION IMMUNOTECHNOLOGY CO., LTD., priority 2012, dated 2020).

System: PBMCs of ten HLA-A2+ healthy subjects
Experiment: In vitro stimulation of peptide-specific T cells in PBMCs of healthy subjects, IFN-γ release by ELISA
Format: cell-based, human
Details: PBMCs stimulated 14 days with peptide 20 μg/mL, response to T2 cells pre-loaded with peptide 5 μg/mL
Method: Ten HLA-A2+ prostate cancer patients and ten HLA-A2+ healthy subjects were enrolled in this study after written informed consent was obtained. All protocols were approved by the Institutional Review Board (IRB) of Baylor College of Medicine before commencing studies. 20 mL of peripheral blood was obtained from each person, and peripheral blood mononuclear cells (PBMCs) were isolated by density gradient centrifugation using Lymphoprep (Nycomed Pharma AS; Oslo, Norway). The freshly isolated PBMCs were cryopreserved for later use in 1 mL freezing medium containing 90% FCS and 10% dimethyl sulfoxide (DMSO) at −140° C. The expression of HLA-A2 molecules on PBMCs obtained from cancer patients and healthy subjects was verified by flow cytometry with FITC-labeled HLA-A2 mAb BB7.2 (BD Pharmingen, San Diego, Calif., USA).
PBMCs (1×10^5 cells/well) from either healthy subjects or prostate cancer patients were incubated with standard peptide concentrations of 20 μg/mL per peptide in 96-well U-bottom microplates (BD, Franklin Lakes, N.J., USA) in 200 μL of T-cell medium (TCM), consisting of RPMI 1640 (Mediatech, Manassas, Va., USA), 10% human AB serum (Valley Biomedical, Winchester, USA), 50 μM of 2-mercaptoethanol, 100 U/mL of interleukin-2 (IL-2), and 0.1 mM MEM nonessential amino acid solution (Invitrogen, Grand Island, N.Y., USA). Half of the TCM was removed and replaced with fresh TCM containing peptides (20 μg/mL) every 5 days. After 14 days of culture, the cells were harvested and tested for their ability to produce IFN-γ in response to T2 cells (1×10^4 cells/well), which were pre-loaded with either PSGR peptide (5 μg/mL) or a control peptide (an irrelevant HL-A2 binding peptide: NLLTHVESL) as a negative control. After 18 hours of incubation, supernatants were collected, and IFN-γ release was determined by ELISA assay.
Cytokine release was measured by coating 96-well ELISA plates (Thermo Fisher Scientific; Rochester, N.Y., USA) with 1 μg/mL anti-human IFN-γ (Pierce Biotechnology; Rockford, Ill., USA) overnight at 4° C. The plate was washed six times with PBS containing 0.05% Tween-20 (wash solution) to remove unbound coating antibody, and blocked with 1% BSA/PBS at room temperature for 2 hrs. Afterwards, 50 μL supernatant was added to each well and incubated at room temperature for 1 hr, then 50 μL of 0.5 μg/mL biotinylated anti-human IFN-γ (Pierce Biotechnology; Rockford, Ill., USA) was added and plates were incubated for an additional 1 hr at room temperature. After incubation, plates were washed and incubated for 30 min with Poly-HRP-Streptavidin (Thermo Fisher Scientific; Rochester, N.Y., USA) diluted 1:5000 in PBS/1% BSA. Plates were washed and 100 μL of TMB substrate solution (Sigma-Aldrich Co.; St. Louis, Mo., USA) was added per well. The colorimetric reaction was stopped using 2N H2SO4 and plates were read at 450 nm using an ELISA plate reader.
To determine whether PSGR-reactive T cell precursors are present in healthy subjects, we obtained PBMCs from 10 HLA-A2+ healthy donors and stimulated them in vitro with each of the 21 PSGR-derived peptides containing HLA-A2-binding motif (Table 1). After 2 weeks of peptide stimulation, supernatants from peptide-stimulated T cells were analyzed by ELISA assay to detect IFN-γ release in response to T2 cells pulsed with or without corresponding peptides.

ALMAPLPVFI (PSGR13)
concentrations of IFN-γ in the supernatants (healthy subject #1): 0 pg/mL | concentrations of IFN-γ in the supernatants (healthy subject #2): 0 pg/mL | concentrations of IFN-γ in the supernatants (healthy subject #3): 0 pg/mL | concentrations of IFN-γ in the supernatants (healthy subject #4): 0 pg/mL | concentrations of IFN-γ in the supernatants (healthy subject #5): 0 pg/mL | concentrations of IFN-γ in the supernatants (healthy subject #6): 0 pg/mL

CLHQDVMKL [PSGR7]
concentrations of IFN-γ in the supernatants (healthy subject #1): 0 pg/mL | concentrations of IFN-γ in the supernatants (healthy subject #2): 0 pg/mL | concentrations of IFN-γ in the supernatants (healthy subject #3): 0 pg/mL | concentrations of IFN-γ in the supernatants (healthy subject #4): 0 pg/mL | concentrations of IFN-γ in the supernatants (healthy subject #5): 168 pg/mL | concentrations of IFN-γ in the supernatants (healthy subject #6): 0 pg/mL

CMLSGIDILI (PSGR17)
concentrations of IFN-γ in the supernatants (healthy subject #1): 0 pg/mL | concentrations of IFN-γ in the supernatants (healthy subject #2): 0 pg/mL | concentrations of IFN-γ in the supernatants (healthy subject #3): 0 pg/mL | concentrations of IFN-γ in the supernatants (healthy subject #4): 0 pg/mL | concentrations of IFN-γ in the supernatants (healthy subject #5): 0 pg/mL | concentrations of IFN-γ in the supernatants (healthy subject #6): 0 pg/mL

FIFYVPFIGL (PSGR22)
concentrations of IFN-γ in the supernatants (healthy subject #1): 289 pg/mL | concentrations of IFN-γ in the supernatants (healthy subject #2): 0 pg/mL | concentrations of IFN-γ in the supernatants (healthy subject #3): 0 pg/mL | concentrations of IFN-γ in the supernatants (healthy subject #4): 0 pg/mL | concentrations of IFN-γ in the supernatants (healthy subject #5): 0 pg/mL | concentrations of IFN-γ in the supernatants (healthy subject #6): 0 pg/mL

GLEEAQFWLA (PSGR12)
concentrations of IFN-γ in the supernatants (healthy subject #1): 0 pg/mL | concentrations of IFN-γ in the supernatants (healthy subject #2): 139 pg/mL | concentrations of IFN-γ in the supernatants (healthy subject #3): 0 pg/mL | concentrations of IFN-γ in the supernatants (healthy subject #4): 246 pg/mL | concentrations of IFN-γ in the supernatants (healthy subject #5): 0 pg/mL | concentrations of IFN-γ in the supernatants (healthy subject #6): 432 pg/mL

HVCAVFIFYV (PSGR11)
concentrations of IFN-γ in the supernatants (healthy subject #1): 0 pg/mL | concentrations of IFN-γ in the supernatants (healthy subject #2): 0 pg/mL | concentrations of IFN-γ in the supernatants (healthy subject #3): 0 pg/mL | concentrations of IFN-γ in the supernatants (healthy subject #4): 0 pg/mL | concentrations of IFN-γ in the supernatants (healthy subject #5): 0 pg/mL | concentrations of IFN-γ in the supernatants (healthy subject #6): 0 pg/mL

KLACDDIRV (PSGR2)
concentrations of IFN-γ in the supernatants (healthy subject #1): 0 pg/mL | concentrations of IFN-γ in the supernatants (healthy subject #2): 0 pg/mL | concentrations of IFN-γ in the supernatants (healthy subject #3): 455 pg/mL | concentrations of IFN-γ in the supernatants (healthy subject #4): 0 pg/mL | concentrations of IFN-γ in the supernatants (healthy subject #5): 0 pg/mL | concentrations of IFN-γ in the supernatants (healthy subject #6): 0 pg/mL

LLAMAFDRYV (PSGR20)
concentrations of IFN-γ in the supernatants (healthy subject #1): 0 pg/mL | concentrations of IFN-γ in the supernatants (healthy subject #2): 0 pg/mL | concentrations of IFN-γ in the supernatants (healthy subject #3): 0 pg/mL | concentrations of IFN-γ in the supernatants (healthy subject #4): 0 pg/mL | concentrations of IFN-γ in the supernatants (healthy subject #5): 0 pg/mL | concentrations of IFN-γ in the supernatants (healthy subject #6): 0 pg/mL

LLILKTVLGL (PSGR15)
concentrations of IFN-γ in the supernatants (healthy subject #1): 0 pg/mL | concentrations of IFN-γ in the supernatants (healthy subject #2): 0 pg/mL | concentrations of IFN-γ in the supernatants (healthy subject #3): 456 pg/mL | concentrations of IFN-γ in the supernatants (healthy subject #4): 0 pg/mL | concentrations of IFN-γ in the supernatants (healthy subject #5): 0 pg/mL | concentrations of IFN-γ in the supernatants (healthy subject #6): 0 pg/mL

LLQMFAIHSL (PSGR18)
concentrations of IFN-γ in the supernatants (healthy subject #1): 176 pg/mL | concentrations of IFN-γ in the supernatants (healthy subject #2): 0 pg/mL | concentrations of IFN-γ in the supernatants (healthy subject #3): 0 pg/mL | concentrations of IFN-γ in the supernatants (healthy subject #4): 0 pg/mL | concentrations of IFN-γ in the supernatants (healthy subject #5): 0 pg/mL | concentrations of IFN-γ in the supernatants (healthy subject #6): 0 pg/mL

SLHEPMYIFL (PSGR19)
concentrations of IFN-γ in the supernatants (healthy subject #1): 0 pg/mL | concentrations of IFN-γ in the supernatants (healthy subject #2): 0 pg/mL | concentrations of IFN-γ in the supernatants (healthy subject #3): 0 pg/mL | concentrations of IFN-γ in the supernatants (healthy subject #4): 0 pg/mL | concentrations of IFN-γ in the supernatants (healthy subject #5): 195 pg/mL | concentrations of IFN-γ in the supernatants (healthy subject #6): 0 pg/mL

SLLISFSYLL (PSGR10)
concentrations of IFN-γ in the supernatants (healthy subject #1): 917 pg/mL | concentrations of IFN-γ in the supernatants (healthy subject #2): 0 pg/mL | concentrations of IFN-γ in the supernatants (healthy subject #3): 0 pg/mL | concentrations of IFN-γ in the supernatants (healthy subject #4): 0 pg/mL | concentrations of IFN-γ in the supernatants (healthy subject #5): 0 pg/mL | concentrations of IFN-γ in the supernatants (healthy subject #6): 0 pg/mL

TLPRVTKIGV (PSGR23)
concentrations of IFN-γ in the supernatants (healthy subject #1): 0 pg/mL | concentrations of IFN-γ in the supernatants (healthy subject #2): 0 pg/mL | concentrations of IFN-γ in the supernatants (healthy subject #3): 0 pg/mL | concentrations of IFN-γ in the supernatants (healthy subject #4): 0 pg/mL | concentrations of IFN-γ in the supernatants (healthy subject #5): 0 pg/mL | concentrations of IFN-γ in the supernatants (healthy subject #6): 0 pg/mL

VLGNLTIIYI (PSGR21)
concentrations of IFN-γ in the supernatants (healthy subject #1): 0 pg/mL | concentrations of IFN-γ in the supernatants (healthy subject #2): 291 pg/mL | concentrations of IFN-γ in the supernatants (healthy subject #3): 0 pg/mL | concentrations of IFN-γ in the supernatants (healthy subject #4): 0 pg/mL | concentrations of IFN-γ in the supernatants (healthy subject #5): 300 pg/mL | concentrations of IFN-γ in the supernatants (healthy subject #6): 377 pg/mL

VLNPIVYGV (PSGR1)
concentrations of IFN-γ in the supernatants (healthy subject #1): 195 pg/mL | concentrations of IFN-γ in the supernatants (healthy subject #2): 0 pg/mL | concentrations of IFN-γ in the supernatants (healthy subject #3): 0 pg/mL | concentrations of IFN-γ in the supernatants (healthy subject #4): 0 pg/mL | concentrations of IFN-γ in the supernatants (healthy subject #5): 0 pg/mL | concentrations of IFN-γ in the supernatants (healthy subject #6): 281 pg/mL

YLIAVLGNLT (PSGR16)
concentrations of IFN-γ in the supernatants (healthy subject #1): 602 pg/mL | concentrations of IFN-γ in the supernatants (healthy subject #2): 0 pg/mL | concentrations of IFN-γ in the supernatants (healthy subject #3): 0 pg/mL | concentrations of IFN-γ in the supernatants (healthy subject #4): 0 pg/mL | concentrations of IFN-γ in the supernatants (healthy subject #5): 163 pg/mL | concentrations of IFN-γ in the supernatants (healthy subject #6): 0 pg/mL

YLLILKTVL (PSGR5)
concentrations of IFN-γ in the supernatants (healthy subject #1): 0 pg/mL | concentrations of IFN-γ in the supernatants (healthy subject #2): 0 pg/mL | concentrations of IFN-γ in the supernatants (healthy subject #3): 0 pg/mL | concentrations of IFN-γ in the supernatants (healthy subject #4): 0 pg/mL | concentrations of IFN-γ in the supernatants (healthy subject #5): 0 pg/mL | concentrations of IFN-γ in the supernatants (healthy subject #6): 0 pg/mL

YVPFIGLSMV (PSGR24)
concentrations of IFN-γ in the supernatants (healthy subject #1): 0 pg/mL | concentrations of IFN-γ in the supernatants (healthy subject #2): 0 pg/mL | concentrations of IFN-γ in the supernatants (healthy subject #3): 0 pg/mL | concentrations of IFN-γ in the supernatants (healthy subject #4): 0 pg/mL | concentrations of IFN-γ in the supernatants (healthy subject #5): 0 pg/mL | concentrations of IFN-γ in the supernatants (healthy subject #6): 0 pg/mL
